Source: paper PMC3914206

Legend:
Assay type in all cases: binding
Conditions in all cases: Compound Concentration 10 µM
panel of 442 kinases [1] = molecular target: T1, panel of 442 kinases (Homo sapiens, UniProt Q13873)
T1 construct: purchased KINOMEscan
T1 sequence (Q13873 27-1038): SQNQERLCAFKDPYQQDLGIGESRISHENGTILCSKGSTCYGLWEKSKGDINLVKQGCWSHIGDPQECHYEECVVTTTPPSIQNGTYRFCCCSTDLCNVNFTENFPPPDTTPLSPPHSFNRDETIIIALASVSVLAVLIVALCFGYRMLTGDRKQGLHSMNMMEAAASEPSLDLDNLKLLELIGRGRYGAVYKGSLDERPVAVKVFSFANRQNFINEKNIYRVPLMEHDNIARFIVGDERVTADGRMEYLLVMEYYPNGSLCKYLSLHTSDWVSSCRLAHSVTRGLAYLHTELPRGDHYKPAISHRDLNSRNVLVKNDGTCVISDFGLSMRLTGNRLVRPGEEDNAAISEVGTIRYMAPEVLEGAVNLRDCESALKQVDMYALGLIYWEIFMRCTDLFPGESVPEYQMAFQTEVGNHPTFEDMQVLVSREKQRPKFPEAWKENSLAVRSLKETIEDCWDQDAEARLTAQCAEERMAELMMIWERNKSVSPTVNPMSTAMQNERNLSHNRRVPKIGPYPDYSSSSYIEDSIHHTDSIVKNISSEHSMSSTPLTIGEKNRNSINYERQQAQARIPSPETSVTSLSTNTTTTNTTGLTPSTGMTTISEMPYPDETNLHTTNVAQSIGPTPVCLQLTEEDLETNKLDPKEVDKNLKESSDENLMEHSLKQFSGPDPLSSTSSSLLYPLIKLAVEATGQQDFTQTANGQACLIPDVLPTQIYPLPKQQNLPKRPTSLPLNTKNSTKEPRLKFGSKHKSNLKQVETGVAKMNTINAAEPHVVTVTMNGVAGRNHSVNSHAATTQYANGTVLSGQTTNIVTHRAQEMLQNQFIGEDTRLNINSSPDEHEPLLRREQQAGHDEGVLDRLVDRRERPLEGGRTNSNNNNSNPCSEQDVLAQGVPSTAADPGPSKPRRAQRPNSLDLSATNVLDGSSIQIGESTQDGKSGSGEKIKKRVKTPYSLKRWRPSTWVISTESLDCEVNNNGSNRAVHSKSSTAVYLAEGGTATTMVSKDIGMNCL
Source text: (§1) We assessed the selectivity of members of this scaffold using the KINOMEscan methodology across a near comprehensive panel of 442 kinases [[18,27]].

panel of 442 kinases [2] = molecular target: T2, panel of 442 kinases (Homo sapiens, UniProt Q9C098)
T2 construct: purchased KINOMEscan
T2 sequence (Q9C098 whole entry): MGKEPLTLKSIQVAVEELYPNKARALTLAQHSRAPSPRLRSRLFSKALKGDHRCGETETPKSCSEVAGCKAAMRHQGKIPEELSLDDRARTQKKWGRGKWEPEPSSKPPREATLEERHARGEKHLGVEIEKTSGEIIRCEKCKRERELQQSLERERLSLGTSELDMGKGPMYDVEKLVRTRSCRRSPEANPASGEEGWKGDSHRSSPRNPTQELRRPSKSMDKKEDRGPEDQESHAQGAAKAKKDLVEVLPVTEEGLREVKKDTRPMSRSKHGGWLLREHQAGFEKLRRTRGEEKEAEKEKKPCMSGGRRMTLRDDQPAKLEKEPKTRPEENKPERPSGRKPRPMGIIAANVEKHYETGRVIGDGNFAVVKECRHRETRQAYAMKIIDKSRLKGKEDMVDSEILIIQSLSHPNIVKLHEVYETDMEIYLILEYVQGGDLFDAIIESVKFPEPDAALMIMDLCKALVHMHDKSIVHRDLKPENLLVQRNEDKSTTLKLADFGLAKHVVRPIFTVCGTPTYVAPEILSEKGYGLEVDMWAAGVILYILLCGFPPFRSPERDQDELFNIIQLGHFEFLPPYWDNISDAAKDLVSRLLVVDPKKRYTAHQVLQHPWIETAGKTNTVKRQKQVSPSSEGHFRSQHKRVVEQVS
Source text: as §1

panel of 442 kinases [3] = molecular target: T3, panel of 442 kinases (Homo sapiens, UniProt P53355)
T3 construct: purchased KINOMEscan
T3 sequence (P53355 whole entry): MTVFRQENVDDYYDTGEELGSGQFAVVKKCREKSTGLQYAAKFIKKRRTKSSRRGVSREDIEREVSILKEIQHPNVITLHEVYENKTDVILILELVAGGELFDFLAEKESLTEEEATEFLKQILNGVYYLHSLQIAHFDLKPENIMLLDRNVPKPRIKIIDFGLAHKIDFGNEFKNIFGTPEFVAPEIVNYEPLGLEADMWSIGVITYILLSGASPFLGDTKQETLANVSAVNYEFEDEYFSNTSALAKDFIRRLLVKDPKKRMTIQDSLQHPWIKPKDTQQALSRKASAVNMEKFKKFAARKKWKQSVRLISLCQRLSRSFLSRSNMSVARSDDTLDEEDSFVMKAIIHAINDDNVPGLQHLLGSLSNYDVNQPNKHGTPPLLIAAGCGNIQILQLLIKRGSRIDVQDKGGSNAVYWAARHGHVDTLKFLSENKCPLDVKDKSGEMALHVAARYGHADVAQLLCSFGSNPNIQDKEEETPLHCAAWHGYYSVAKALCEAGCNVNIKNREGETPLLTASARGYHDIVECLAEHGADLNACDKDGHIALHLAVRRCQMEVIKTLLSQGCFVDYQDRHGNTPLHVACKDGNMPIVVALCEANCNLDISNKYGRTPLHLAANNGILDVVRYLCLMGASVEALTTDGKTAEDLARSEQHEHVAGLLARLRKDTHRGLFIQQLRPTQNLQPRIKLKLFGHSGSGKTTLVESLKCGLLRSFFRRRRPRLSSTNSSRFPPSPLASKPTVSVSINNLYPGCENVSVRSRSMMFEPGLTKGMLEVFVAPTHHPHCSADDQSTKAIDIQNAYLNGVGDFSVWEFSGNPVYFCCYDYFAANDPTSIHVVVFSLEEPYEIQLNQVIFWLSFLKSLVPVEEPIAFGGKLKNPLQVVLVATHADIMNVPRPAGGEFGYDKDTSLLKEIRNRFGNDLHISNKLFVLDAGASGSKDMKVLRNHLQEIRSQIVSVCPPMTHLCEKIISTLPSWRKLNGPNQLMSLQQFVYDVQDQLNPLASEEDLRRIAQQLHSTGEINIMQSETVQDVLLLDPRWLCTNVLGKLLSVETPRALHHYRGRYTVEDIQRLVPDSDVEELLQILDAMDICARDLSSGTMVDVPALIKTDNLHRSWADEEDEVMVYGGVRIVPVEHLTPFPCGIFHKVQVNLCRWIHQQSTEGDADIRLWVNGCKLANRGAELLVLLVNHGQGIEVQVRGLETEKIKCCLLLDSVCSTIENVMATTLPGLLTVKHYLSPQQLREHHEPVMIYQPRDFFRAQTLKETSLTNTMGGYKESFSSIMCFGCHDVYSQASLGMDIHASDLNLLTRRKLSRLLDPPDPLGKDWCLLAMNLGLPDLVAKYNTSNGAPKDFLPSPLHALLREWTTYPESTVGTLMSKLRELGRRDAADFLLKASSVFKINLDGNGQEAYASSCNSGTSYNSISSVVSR
Source text: as §1

Row | SMILES | KINOMEscan: BMPR2 (panel of 442 kinases [1]) | KINOMEscan: DCAMKL3 (panel of 442 kinases [2]) | KINOMEscan: DAPK1 (panel of 442 kinases [3])
1 | CCOc1cc(C(=O)N2CCC(N3CCN(C)CC3)CC2)ccc1Nc1ncc2c(n1)N(C1CCCC1)c1ccccc1C(=O)N2C [Compound 26] | 93 | 92 | 100
2 | COc1cc(C(=O)N2CCC(N3CCN(C)CC3)CC2)ccc1Nc1ncc2c(n1)N(C1CCCC1)c1ccccc1C(=O)N2C [Compound 25, 11-cyclopentyl-2-((2-methoxy-4-(4-(4-methylpiperazin-1-yl)piperidine-1-carbonyl)phenyl)amino)-5-methyl-5H-benzo[e]pyrimido[5,4-b][1,4]diazepin-6(11H)-one] | 100 | 100 | 77
3 | COc1cc(C(=O)N2CCC(N3CCN(C)CC3)CC2)ccc1Nc1ncc2c(n1)N1CCc3cccc(c31)C(=O)N2C [Compound 24] | – | – | 19
4 | COc1cc(C(=O)N2CCC(N3CCN(C)CC3)CC2)ccc1Nc1ncc2c(n1)N(C)c1ccccc1C(=O)N2C [15 (LRRK2-IN-1)] | 100 | 90 | 73
